Results published in patent US4450269A, “Mono-5-substituted-3-chloro-4H-1,2,6-thiadiazin-4-one antifungal agents” (FMC Corporation, priority 1980, dated 1984).
Read-outs that look alike come from different tables or passages of the source.

Assays:
Alternaria solani [1] = experiment: Spore germination test; type: cell-based; settings: AS, 48 hours
Protocol: (§1) The test chemical was dissolved or suspended in acetone in an amount such that 0.8 ml of the resulting suspension or solution, mixed with 40 ml water agar produced a water agar solution containing 40, 10, 2.5 and 1 ppm of test chemical. The resulting agar solution, at 50° C., was then divided equally between two sterile petri dishes, each having four separated quadrants, and allowed to solidify. […] quadrants of each dish were flooded with 0.1 ml of a spore suspension in sterile water. Spores of two pathogens, Erysiphe polygoni and Uromyes phaseoli, from infected plant leaves, were brushed on the remaining two quadrants. The tests were then incubated 48 hours, at 24° C.
(§2) Readings were then taken and the percentage of germinated spores calculated. From this percentage, a spore germination rating was assigned as follows: […]

Botrytis cinerea = experiment: Spore germination test; type: cell-based; settings: BC, 48 hours
Protocol: as §1, §2

Erysiphe polygoni [2] = experiment: Spore germination test; type: cell-based; settings: EP, 48 hours
Protocol: as §1, §2

Uromyces phaseoli [3] = experiment: Spore germination test; type: cell-based; settings: UP, 48 hours
Protocol: as §1, §2

Pyricularia oryzae [4] = type: cell-based; settings: PO, 48 hours
Cladosporium cucumerinum [5] = experiment: Spore germination test; type: cell-based; settings: CC, 48 hours
Protocol: CC = Cladosporium cucumerinum
as §1, §2

Phytophthora infestans [6] = type: cell-based; settings: PI, 48 hours
Alternaria solani [7] = experiment: Mycelial growth test; type: cell-based; settings: AS, 72 hours
Fusarium solani = experiment: Mycelial growth test; type: cell-based; settings: PS, 72 hours
Sclerotinia fructicola = experiment: Mycelial growth test; type: cell-based; settings: SF, 72 hours
Description: | SF = Sclerotinia fructicola

Pyricularia oryzae [8] = experiment: microbe, parasite or virus in culture; type: cell-based; settings: PO, 72 hours
Pythium ultimum = experiment: Mycelial growth test; type: cell-based; settings: PU, 72 hours
Rhizoctonia solani = experiment: Mycelial growth test; type: cell-based; settings: RS, 72 hours
Description: | RS = Rhizoctonia solani

Cladosporium cucumerinum [9] = experiment: Mycelial growth test; type: cell-based; settings: CC, 72 hours
Description: |CC = Cladosporium cucumerinum

Phytophthora infestans [10] = experiment: whole plant or invertebrate; type: in vivo; settings: 150 ppm, protective
Pyricularia oryzae [11] = experiment: whole plant or invertebrate; type: in vivo; settings: 150 ppm, 24 hours after inoculation
[12] = tested on: Pythium ultimum and Rhizoctonia solani; experiment: Soil/seed treatment, cucumber damping-off complex; type: in vivo; settings: 150 ppm suspension, 3.75 to 3.8 mg per pot
Protocol: Containers having a volume of about 0.25 l. were 2/3 filled with topsoil and 25 cucumber c.v. [Straight Eight` seeds deposited on the soil surface of each pot. A suspension containing 150 ppm of the test chemical was poured over the seeds and into the soil in sufficient quantity to provide 3.75 to 3.8 mg active ingredient per pot.
Fungi used in this test were Pythium ultimum and Rhizoctonia solani. These fungi were each grown on potato dextrose agar for three to six days. The agar plus mycelium was then minced in a blender with water and 10 ml of the resulting slurry of minced mycelium poured over the seeds.
Following inoculation approximately 15 mm of topsoil was spread over the seeds, the container capped and incubated at 4° C. in darkness for three days, then transferred to a greenhouse (27° C.) for 10-14 days, at which time stand counts were made. Captan was used as a standard for comparison. Based on stand counts on Efficacy Index was calculated for each test chemical as follows: [formula]

Uromyces phaseoli [13] = settings: in vivo
Uromyces phaseoli [14] = settings: in vivo; remark: listed apart in the source
Erysiphe polygoni [15] = settings: in vivo
Helminthosporium oryzae = experiment: Mycelial growth test; settings: HO, 72 hours

3-chloro-5-[methylaminocarbonyloxy)phenoxyl]-4H-1,2,6-thiadiazin-4-one [Compound 36]
Spore Germination Rating (Alternaria solani [1]; 1.0 ppm): 4 (80-100) | Spore Germination Rating (Alternaria solani [1]; 2.5 ppm): 4 (80-100) | Spore Germination Rating (Alternaria solani [1]; 10 ppm): 2 (40-60) | Spore Germination Rating (Alternaria solani [1]; 40 ppm): 0 (0-10) | Spore Germination Rating (Botrytis cinerea; 1.0 ppm): 4 (80-100) | Spore Germination Rating (Botrytis cinerea; 2.5 ppm): 4 (80-100) | Spore Germination Rating (Botrytis cinerea; 10 ppm): 4 (80-100) | Spore Germination Rating (Botrytis cinerea; 40 ppm): 2 (40-60) | Spore Germination Rating (Erysiphe polygoni [2]; 1.0 ppm): 4 (80-100) | Spore Germination Rating (Erysiphe polygoni [2]; 2.5 ppm): 3 (60-80) | Spore Germination Rating (Erysiphe polygoni [2]; 10 ppm): 1 (10-40) | Spore Germination Rating (Erysiphe polygoni [2]; 40 ppm): 1 (10-40) | Spore Germination Rating (Uromyces phaseoli [3]; 1.0 ppm): 4 (80-100) | Spore Germination Rating (Uromyces phaseoli [3]; 2.5 ppm): 2 (40-60) | Spore Germination Rating (Uromyces phaseoli [3]; 10 ppm): 0 (0-10) | Spore Germination Rating (Uromyces phaseoli [3]; 40 ppm): 0 (0-10) | Spore Germination Rating (Pyricularia oryzae [4]; 1.0 ppm): 4 (80-100) | Spore Germination Rating (Pyricularia oryzae [4]; 2.5 ppm): 2 (40-60) | Spore Germination Rating (Pyricularia oryzae [4]; 10 ppm): 0 (0-10) | Spore Germination Rating (Pyricularia oryzae [4]; 40 ppm): 0 (0-10) | Spore Germination Rating (Cladosporium cucumerinum [5]; 1.0 ppm): 4 (80-100) | Spore Germination Rating (Cladosporium cucumerinum [5]; 2.5 ppm): 3 (60-80) | Spore Germination Rating (Cladosporium cucumerinum [5]; 40 ppm): 0 (0-10) | Spore Germination Rating (Phytophthora infestans [6]; 1.0 ppm): 4 (80-100) | Spore Germination Rating (Phytophthora infestans [6]; 2.5 ppm): 4 (80-100) | Spore Germination Rating (Phytophthora infestans [6]; 10 ppm): 4 (80-100) | Spore Germination Rating (Phytophthora infestans [6]; 40 ppm): 0 (0-10) | Percent Fungus Growth Inhibition (Alternaria solani [7]; 5 ppm): 71% | Percent Fungus Growth Inhibition (Alternaria solani [7]; 10 ppm): 90% | Percent Fungus Growth Inhibition (Alternaria solani [7]; 20 ppm): 100% | Percent Fungus Growth Inhibition (Alternaria solani [7]; 40 ppm): 100% | Percent Fungus Growth Inhibition (Fusarium solani; 5 ppm): 30% | Percent Fungus Growth Inhibition (Fusarium solani; 10 ppm): 45% | Percent Fungus Growth Inhibition (Fusarium solani; 20 ppm): 60% | Percent Fungus Growth Inhibition (Fusarium solani; 40 ppm): 90% | Percent Fungus Growth Inhibition (Sclerotinia fructicola; 5 ppm): 38% | Percent Fungus Growth Inhibition (Sclerotinia fructicola; 10 ppm): 62% | Percent Fungus Growth Inhibition (Sclerotinia fructicola; 20 ppm): 58% | Percent Fungus Growth Inhibition (Sclerotinia fructicola; 40 ppm): 100% | Percent Fungus Growth Inhibition (Pyricularia oryzae [8]; 5 ppm): 31% | Percent Fungus Growth Inhibition (Pyricularia oryzae [8]; 10 ppm): 69% | Percent Fungus Growth Inhibition (Pyricularia oryzae [8]; 20 ppm): 100% | Percent Fungus Growth Inhibition (Pyricularia oryzae [8]; 40 ppm): 100% | Percent Fungus Growth Inhibition (Pythium ultimum; 5 ppm): 0% | Percent Fungus Growth Inhibition (Pythium ultimum; 10 ppm): 42% | Percent Fungus Growth Inhibition (Pythium ultimum; 20 ppm): 100% | Percent Fungus Growth Inhibition (Pythium ultimum; 40 ppm): 100% | Percent Fungus Growth Inhibition (Rhizoctonia solani; 5 ppm): 0% | Percent Fungus Growth Inhibition (Rhizoctonia solani; 10 ppm): 4% | Percent Fungus Growth Inhibition (Rhizoctonia solani; 20 ppm): 42% | Percent Fungus Growth Inhibition (Rhizoctonia solani; 40 ppm): 87% | Percent Fungus Growth Inhibition (Cladosporium cucumerinum [9]; 5 ppm): 0% | Percent Fungus Growth Inhibition (Cladosporium cucumerinum [9]; 10 ppm): 8% | Percent Fungus Growth Inhibition (Cladosporium cucumerinum [9]; 20 ppm): 38% | Percent Fungus Growth Inhibition (Cladosporium cucumerinum [9]; 40 ppm): 62% | Percent Disease Control, foliar, tomato late blight (Phytophthora infestans [10]): 90% | Percent Disease Control, curative, rice blast (Pyricularia oryzae [11]): 95% | Efficacy Index, seed/soil, cucumber damping-off complex [12]: 13 | Percent Disease Control, foliar, bean rust (Uromyces phaseoli [13]): 100% | Percent Disease Control, curative, bean rust (Uromyces phaseoli [14]): 0% | Percent Disease Control, curative, bean powdery mildew (Erysiphe polygoni [15]): 0% | Percent Fungus Growth Inhibition (Helminthosporium oryzae; 5 ppm): 78% | Percent Fungus Growth Inhibition (Helminthosporium oryzae; 10 ppm): 78% | Percent Fungus Growth Inhibition (Helminthosporium oryzae; 20 ppm): 89% | Percent Fungus Growth Inhibition (Helminthosporium oryzae; 40 ppm): 100%
